The target in one series is T1, hαvβ3 (Homo sapiens, UniProt P05106+P06756).
T1 construct: The full extracellular domains for all α and β integrin subunits; (GGGS)3 linker (C); acidic coiled-coil with cysteine (C); GG-Avitag (C); hexa-histidine tag (C); basic coiled-coil with cysteine (C); made in house; host or cells: Expi293 cells
The series is described as follows: Human AlphaLISA integrin-ligand blocking assay (vitronectin). The format is biochemical. The protocol: (§1) Integrin AlphaLISA assay. In the AlphaLISA integrin assays, we used a HEPES based buffer (25 mM HEPES pH 7.4, 137 mM NaCl, 1 mM MgCl2, 1 mM MnCl2, 2 mM CaCl2, 2.7 mM KCl, and 0.05% Tween 20). Optimal assay conditions were determined with a titration of the reagents for signal noise ratio (S/N), linear range, etc. For the respective integrins, we used the final concentrations described in Table 9.
(§2) Briefly, the testing antibody (8 μL) was added as a 4×(of Final testing concentration) solution in the HEPES buffer described previously into a 384w AlphaPlate™ (Perkin Elmer #6005350). Then the integrin and ligand were added sequentially as 8×(4 μL each). Plates were sealed and incubated at room temperature for two hours. Then 4×acceptor bead solution ([…]) was added, and the plates were resealed and incubated at room temperature (RT) for one hour. Finally, 4×([…]) donor beads solution was added in a darkened room and incubated for 45 minutes at room temperature. Plates were read on the Envision (Perkin Elmer) in AlphaScreen™ mode within three hours of donor bead addition.
A general note: In Alpha technology, singlet oxygen from a donor bead excites a nearby acceptor bead.

The target in the next series is T2, hαvβ5 (Homo sapiens, UniProt P06756+P18084).
T2 construct: The full extracellular domains for all α and β integrin subunits; (GGGS)3 linker (C); acidic coiled-coil with cysteine (C); GG-Avitag (C); hexa-histidine tag (C); basic coiled-coil with cysteine (C); made in house; host or cells: Expi293 cells
T2 sequence (P06756 31-992 limits assumed): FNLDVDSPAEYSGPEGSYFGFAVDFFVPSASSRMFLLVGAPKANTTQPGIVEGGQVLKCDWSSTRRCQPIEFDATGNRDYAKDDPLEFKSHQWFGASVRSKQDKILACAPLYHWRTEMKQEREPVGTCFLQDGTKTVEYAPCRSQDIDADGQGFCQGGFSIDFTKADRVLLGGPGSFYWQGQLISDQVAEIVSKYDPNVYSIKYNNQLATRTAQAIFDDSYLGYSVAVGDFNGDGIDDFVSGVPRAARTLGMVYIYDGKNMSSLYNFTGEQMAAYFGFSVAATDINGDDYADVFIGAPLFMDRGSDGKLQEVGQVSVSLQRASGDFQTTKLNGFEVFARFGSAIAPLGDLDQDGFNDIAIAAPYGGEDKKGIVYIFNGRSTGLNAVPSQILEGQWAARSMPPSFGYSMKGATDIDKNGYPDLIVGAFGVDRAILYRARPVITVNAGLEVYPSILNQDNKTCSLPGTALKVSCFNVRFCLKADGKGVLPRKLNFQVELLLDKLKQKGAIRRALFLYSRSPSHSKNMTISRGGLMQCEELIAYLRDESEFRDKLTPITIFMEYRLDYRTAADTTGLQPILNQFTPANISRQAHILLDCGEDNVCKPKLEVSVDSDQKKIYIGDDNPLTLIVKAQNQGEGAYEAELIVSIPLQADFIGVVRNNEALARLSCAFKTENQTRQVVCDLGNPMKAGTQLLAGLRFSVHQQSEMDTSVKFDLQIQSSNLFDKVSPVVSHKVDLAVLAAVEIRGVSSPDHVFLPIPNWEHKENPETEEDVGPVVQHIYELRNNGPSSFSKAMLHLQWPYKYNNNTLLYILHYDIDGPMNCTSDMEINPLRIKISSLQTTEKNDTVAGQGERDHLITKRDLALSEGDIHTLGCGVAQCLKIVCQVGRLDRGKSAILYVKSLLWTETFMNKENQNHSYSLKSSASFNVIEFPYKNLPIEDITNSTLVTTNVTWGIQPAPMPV
T2 sequence (P18084 24-719 limits assumed): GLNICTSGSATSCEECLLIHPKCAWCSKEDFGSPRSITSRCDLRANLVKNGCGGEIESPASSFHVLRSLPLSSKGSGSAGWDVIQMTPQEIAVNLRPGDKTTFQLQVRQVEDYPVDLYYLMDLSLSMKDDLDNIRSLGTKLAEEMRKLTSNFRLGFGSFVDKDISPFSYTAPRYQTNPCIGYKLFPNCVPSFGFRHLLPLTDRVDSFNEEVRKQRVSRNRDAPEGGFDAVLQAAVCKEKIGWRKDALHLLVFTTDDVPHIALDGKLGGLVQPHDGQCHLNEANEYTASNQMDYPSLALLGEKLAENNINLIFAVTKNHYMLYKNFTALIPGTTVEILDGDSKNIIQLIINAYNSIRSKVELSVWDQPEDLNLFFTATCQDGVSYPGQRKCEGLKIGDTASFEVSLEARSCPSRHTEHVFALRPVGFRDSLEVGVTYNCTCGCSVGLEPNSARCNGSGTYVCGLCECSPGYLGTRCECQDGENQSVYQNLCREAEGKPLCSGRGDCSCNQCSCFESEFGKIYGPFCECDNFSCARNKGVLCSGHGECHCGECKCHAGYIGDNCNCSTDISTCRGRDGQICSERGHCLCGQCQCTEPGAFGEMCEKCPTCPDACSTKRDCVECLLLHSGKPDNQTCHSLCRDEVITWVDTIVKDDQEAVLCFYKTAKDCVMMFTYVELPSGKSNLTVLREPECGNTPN
The series is described as above. The class given is biochemical. The method, then:
as §1, §2

Series [1] concerns bleomycin-induced lung fibrosis mouse model. Briefly: Mouse bleomycin lung fibrosis model. The class given is in vivo. The conditions noted are these: MK-0429 200 mpk osmotic minipump, Nintedanib 60 mpk po qd. The method, then:
Mouse bleomycin lungfibrosis models. Adult male C57BL/6 mice (Taconic, Rensselaer, NY) were housed in a temperature and humidity-controlled facility with a 12-hour light: 12-hour dark cycle. Animals had ad libitum access to food (Purina Rodent Chow 5053, LabDiet, St. Louis, MO) and water. All procedures utilizing experimental animals were conducted in accordance with the Guide for the Care and Use of Laboratory Animals, and experimental procedures were reviewed and approved by the Institutional Animal Care and Use Committee at MRL, Kenilworth, NJ.
For osmotic minipump implantation, trifluoroacetate (TFA) salt of MK-0429 was formulated in 50% dimethylsulfoxide (DMSO)/50% H2O at a concentration of 416 mg/mL. MK-0429 or vehicle solution were filled in minipumps (Alzet, #1007D, flow rate 0.5 μL/hour). Minipumps were placed in mice subcutaneously in a pocket on the back between the shoulder blades. A small incision was made and a subcutaneous pocket formed by blunt dissection. A sterile minipump was inserted into the subcutaneous pocket. The incision was closed with staples or non-absorbable suture or absorbable (subcuticular) suture. The minipumps were used for continuous drug delivery for two weeks.
Mice at 12˜13 weeks of age were randomized to five groups: saline, bleomycin instillation with vehicle (osmotic minipump), bleomycin instillation with MK-0429 treatment, bleomycin instillation with vehicle oral treatment, and bleomycin instillation with Nintedanib treatment. All mice were anaesthetized with isoflurane. Bleomycin was dosed by intratracheal (i.t) instillation in a volume of 50 μL, at a dose of 1 unit/kg body weight. After instillation, mice were kept in a heads-up position for 2-5 minutes before putting into cages. MK-0429 (200 mg/kg) was administered by Osmotic pump from day 5 to day 14 and Nintedanib (60 mg/kg) was administered, p.o., q.d., for 14 days. Vehicle was dosed orally at 10 am daily from the day 5 to the end of the studies and dosing volume was 10 mL/kg. For plasma PK analysis, an aliquot of 50 μL plasma was spiked into a 96-well plate, and 200 μL of acetonitrile containing internal standard were added for protein precipitation. The mixture was vortexed, centrifuged at 4000 rpm for 20 minutes. Then 50 μL of supernatant fraction was mixed with 200 μL H2O and the final solution were injected for LC-MS/MS analysis. The methods for quantitative analysis were developed on UPLC (Waters) chromatographic system equipped with an API4000 QTrap™ mass spectrometer (Applied Biosystems, Concord, Ontario, Canada). Analyst 1.5 software packages (Applied Biosystems) were used to control the LC-MS/MS system and data acquisition and processing.
Histopathology analysis. Upon completion of the study, animals were euthanized and tissues were collected for histological assessment. Lung tissues were perfused with 10% formalin, fixed for 24 hours, and then paraffin embedded. Tissue sections were stained with hematoxylin & eosin (H&E) and Masson's trichrome, subsequently evaluated under light microscope. The severity of histopathologic changes and fibrosis in the lung were graded as described previously by pathologists (Ashcroft et al., J. Clin. Pathol. 41, 467-470 (1988); Hubner et al., Biotechniques 44(507-511), 514-607 (2008)). Following deparaffinization and rehydration, each lung tissue section was processed to identify αSMA deposition by immunohistochemistry. The primary antibodies used were αSMA antibody from Sigma. The Aperio ScanScope™ XT Slide Scanner (Aperio Technologies) system was used to capture whole slide digital images with a 20×objective. Digital images were managed using Aperio Spectrum™. The positive stains were identified and quantified using a macro created from a color deconvolution algorithm (Aperio Technologies). Statistical analysis was performed by using One-way ANOVA followed by Tukey's test.

Series [2] deals with IPF patient lung fibroblasts. The series is described as follows: αSMA imaging, TGFβ-induced αSMA expression. The class given is cell-based, human. On the set-up: inhibiting αSMA induction: dose or concentration left out as unconfirmed. The method, then: (§3) αSMA imaging. Primary cells (passage 3-5) were grown on Cell carrier Ultra, collagen Type 1 coated 96-well plates (Perkin Elmer, #6055700) at a density of 25,000 cells/well. Once the cells adhere, they were starved in serum free media for 24 hours followed by addition of treatments, i.e., 5 ng/mL TGFβ (Biolegend #580702)±inhibitors. Cells were pre-treated with inhibitors for 30 minutes prior to the addition of TGFβ stimulation. 48 hours post treatment, the cells were fixed in 4% methanol free paraformaldehyde (ThermoFisher Scientific #28908) for 20 minutes at room temperature and incubated with anti-alpha smooth muscle Actin antibody (Abcam #ab7817) at 1:4000 overnight at 4° C. Following primary antibody incubation, cells were incubated with Goat anti-mouse secondary antibody (ThermoFisher Scientific #A32723) at 1:500 and Hoechst (ThermoFisher Scientific #62249) at 1:1000 for one hour at RT. The fixed and stained cells were images for immunofluorescence on Perkin Elmer's Opera Phenix high content Imager.

The conditions of series [3]: humans; cited from earlier work.
The subject of series [4] is Normal human lung fibroblasts. The series is described as follows: αSMA imaging, TGFβ-induced αSMA expression. The format is cell-based. The conditions noted are these: TGFβ 5 ng/mL, pre-treated 30 minutes, MK-0429 (10 µM) or SB-525334 (10 μM), 48 hours. The method, then:
as §3

[5] abbreviates: 14 days treatment, vs BLM-vehicle.

Results on one compound are retold here after patent US20250313635A1, “ANTI-INTEGRIN ANTIBODIES AND USES THEREOF” (Merck Sharp & Dohme LLC, priority 2022, published 2025).

Where two headings read alike, the source gives them in different places.

What is called IC50 is the point on the concentration scale where inhibition reaches its midpoint.

T1 sequence (P06756 31-992 limits assumed): as the sequence (P06756 31-992 limits assumed) above
T1 sequence (P05106 27-718 limits assumed): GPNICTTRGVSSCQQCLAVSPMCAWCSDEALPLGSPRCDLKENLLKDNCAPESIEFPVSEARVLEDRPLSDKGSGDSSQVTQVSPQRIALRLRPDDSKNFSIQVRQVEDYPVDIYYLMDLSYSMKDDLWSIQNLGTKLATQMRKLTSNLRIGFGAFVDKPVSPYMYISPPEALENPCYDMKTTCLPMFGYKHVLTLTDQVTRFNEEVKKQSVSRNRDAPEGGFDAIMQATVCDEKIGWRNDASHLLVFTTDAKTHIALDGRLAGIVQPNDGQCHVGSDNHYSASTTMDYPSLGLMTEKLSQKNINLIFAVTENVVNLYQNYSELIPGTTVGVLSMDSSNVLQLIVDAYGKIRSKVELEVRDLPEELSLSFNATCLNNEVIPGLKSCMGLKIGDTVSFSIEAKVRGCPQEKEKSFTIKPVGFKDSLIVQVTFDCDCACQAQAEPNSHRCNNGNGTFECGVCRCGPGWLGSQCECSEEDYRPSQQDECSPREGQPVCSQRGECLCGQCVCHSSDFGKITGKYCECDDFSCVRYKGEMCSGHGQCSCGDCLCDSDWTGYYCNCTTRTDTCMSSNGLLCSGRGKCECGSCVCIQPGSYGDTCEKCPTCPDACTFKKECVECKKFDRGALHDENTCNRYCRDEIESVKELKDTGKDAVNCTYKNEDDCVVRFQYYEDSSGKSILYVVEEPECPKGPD

`COc1ccc([C@H](CC(=O)O)N2CCN(CCCc3ccc4c(n3)NCCC4)C2=O)cn1` [MK-0429, (3S)-3-(6-methoxypyridin-3-yl)-3-[2-oxo-3-[3-(5,6,7,8-tetrahydro-1,8-naphthyridin-2-yl)propyl]imidazolidin-1-yl]propanoic acid]: the IC50 at hαvβ3 (FIG. 3D, curve-fitted, read-out: IC50 against human αvβ3, AlphaLISA) worked out at 0.15 nM. For the same compound, at hαvβ3 (Table 11, read-out: IC50 Human integrin AlphaLISA assays hαvβ3), the concentration for half-maximal inhibition (IC50) came out at 1.6 nM. The IC50 at hαvβ5 (FIG. 3D, curve-fitted, read-out: IC50 against human αvβ5, AlphaLISA) came to 9.9 nM. Moreover, at hαvβ5 (Table 11, read-out: IC50 Human integrin AlphaLISA assays hαvβ5), the IC50 was found to be 2.9 nM. In addition, the “body weight difference vs bleomycin group” value in series [1] was “no significant body weight difference”. Also, in series [1] (setting [5]), the “BALF TIMP-1 content” value was “did not reach statistical significance”, the “bleomycin-induced αSMA expression (IHC)” value is listed as “significantly decreased”, the “inflammation in the lung” value is recorded as “nonstatistical significant decrease” and the “modified Ashcroft score” value was “significantly decreased”. In addition, the “inhibiting αSMA induction” value in series [2] was “minimal activity”. For the same compound, the oral bioavailability result in series [3] was “good oral bioavailability”. For the same compound, in series [4], the “αSMA intensity and the percentage of stimulated cells following TGFβ treatment” value is given as “significantly reduced”.
